Where two headings read alike, the source gives them in different places.
How the values were obtained:
VDR = biological target: T1, VDR (Homo sapiens, UniProt P11473); assay: VDR CTF (Caco-2 cell co-transfection assay); type: cell-based; conditions: Caco-2 cells
T1 construct: the receptor expression vector pGa14-VDR-LBD (10 ng); expressed in transfected cells; host or cells: Caco-2 cells
T1 sequence (P11473 127-423 limits assumed): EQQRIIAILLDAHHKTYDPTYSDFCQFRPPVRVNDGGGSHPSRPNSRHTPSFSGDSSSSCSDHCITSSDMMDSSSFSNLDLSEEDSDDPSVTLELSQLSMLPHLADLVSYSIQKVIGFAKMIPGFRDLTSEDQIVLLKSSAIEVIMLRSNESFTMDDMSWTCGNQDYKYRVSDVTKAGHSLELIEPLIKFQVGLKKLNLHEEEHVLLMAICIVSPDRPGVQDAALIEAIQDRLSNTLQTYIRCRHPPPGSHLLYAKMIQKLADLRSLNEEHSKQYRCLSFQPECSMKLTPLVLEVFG
Method: 3. The VDR CTF (Caco-2 cells) test is described in the “Assay” section of the Description, infra.
2. The Caco-2 Cell Co-Transfection Assay:
The Caco-2 cell assay is an indicator for the undesirable condition of hypercalcemia. This co-transfection assay is a surrogate assay for in vivo calcemic activity of VDR ligands. […] Preferred assay results are greater than 1000 nM.
(2) Materials and Method for The Caco-2 Cell Assay:
Caco-2 cells, grown in phenol red free, DMEM (Invitrogen, Carlsbad, Calif.) containing 10% charcoal-stripped FCS (Hyclone, Logan, Utah), were transfected with Fugene 6 reagent (Roche Diagnostics, Indianapolis, Ind.). Cells (5000/well) were plated 18 h before transfection in a 96 well plate. The Cells were transfected with Gal-4-responsive reporter pFRLuc (150 ng, Stratagene, La Jolla Calif.) and the receptor expression vector pGa14-VDR-LBD (10 ng), along with Fugene 6 reagent (0.2 µl/well). The DNA-Fugene complex was formed by incubating the mixture for 30 min at room temperature. The cells were transfected in triplicate for 5 h, and treated with various concentrations of VDR ligands (form 0.01 nM to 10,000 nM concentration range) 18 h post-transfection. The luciferase activity was quantified using Steady-Glo reagent kit (Promega, Madison, Wis.) as per manufacturer's specifications.

rat osteocalcin promoter = assay: OCN (osteocalcin) promoter assay in RG-15 (ROS 17/2.8) cells; type: cell-based
In short: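 Rat osteoblast-like RG-15 (ROS 17/2.8) cells stably carry the rat osteocalcin promoter fused to luciferase. They were treated with compounds for 48 h in medium with 2% FBS and 0.01% DMSO. EC50 was derived from luciferase activity in cell lysates.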

RXR-VDR heterodimer = biological target: T2, RXR-VDR heterodimer (Homo sapiens, UniProt P11473); assay: RXR-VDR heterodimerization assay (SaOS-2 cells); type: cell-based
T2 construct: Add the Gal-4-RXR-DEF and VP16-VDR-LBD; expressed in transfected cells; host or cells: SaOS-2 cells
T2 sequence (P11473 127-423 limits assumed): T1 sequence (P11473 127-423 limits assumed)
T2 sequence (P19793 201-462 partner limits assumed): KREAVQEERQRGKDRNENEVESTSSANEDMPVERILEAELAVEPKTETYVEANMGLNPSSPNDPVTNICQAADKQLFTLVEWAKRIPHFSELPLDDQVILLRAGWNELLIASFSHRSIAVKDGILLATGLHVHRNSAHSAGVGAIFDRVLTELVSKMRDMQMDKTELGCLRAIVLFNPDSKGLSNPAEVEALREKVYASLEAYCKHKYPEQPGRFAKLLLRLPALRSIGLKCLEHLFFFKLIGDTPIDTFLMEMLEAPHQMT
From the text: 2. The RXR-VDR heterodimerization (SaOS-2 cells) test is described in the “Assay” section of the Description, infra.
1. The RXR-VDR heterodimerAssay:
This assay provides the VDR activity of a test compound.
(1) Materials and Method for RXR-VDR Heterodimerization Assay:
Luciferase Assay Reagent: • Use Steady-Glo Luciferase Reagent from Promega (Cat # E2550) Consists of: • a. E2533 Assay Substrate, lyopholized product and • b. […] DAY 2: Transfection Step 1: DNA and Media • Add plain DMEM media to tubes for mixing the DNA • Add the Reporter gene pFR-LUC • Add the Gal-4-RXR-DEF and VP16-VDR-LBD Step 2: FuGENE and Media • Prepare plain DMEM media in a ubes for mixing FuGENE • Add FuGENE 6 Transfection Reagent • Incubate Step 3: FuGENE, DNA and Media Complex • Add FuGENE Media complex from step 2 to DNA Media complex from step 1 • Incubate Step 4: FuGENE, DNA and Media Complex to-well plate • Add FuGENE-DNA-Media complex from step 3 to each plate • Incubate. […] Day 4: Luciferase Assay • Read the plates after drug treatment • Remove part of media from all the wells and leave remainder • Add Steady-Glo Luciferase Reagent mixture/wells • Incubate • Count each well using a Luminescence counter, Top Count NXT by Packard
Set a delay between plates to reduce the background.

[1] = test system: IL-10 production in peripheral blood mononuclear cells (PBMCs); assay: Human IL-10 induction assay in PBMCs; type: cell-based; conditions: TPA/PHA stimulated human PBMCs, IL-10 in supernatant by immunoassay
From the text: 7. The IL-10 induction assay is described in the “Assay” section of the Description, infra.
The evaluation of the novel compounds of the invention for psoriasis is done using the Keratinocyte Proliferation Assay in combination with other assays that measure inhibition of IL-2 production and stimulation of IL-10 production in peripheral blood mononuclear cells (PBMCs).
6. The IL-1 Induction Assay
This is an in vitro efficacy assay for psoriasis, abscess and adhesion. Psoriasis involves both keratinocytes and immune cells. IL-10 is a unique cytokine because it is anti-inflammatory and immunosuppressive. This assay tells us whether a VDRM is able to function as an agonist in PBMCs (primary blood mononuclear cells) or not. A lower EC50 value is desirable in this assay since a compound with a lower EC50 value will be a better agonist in PBMCs. An acceptable test result is an EC50 value of less than 200 nM.
(6) Materials and Method for Human IL-10 Induction Assay:
Isolation of peripheral blood mononuclear cells (PBMCs):
• A. Collect 50 ml of human blood and dilute with media, RPMI-1640. • B. Prepare sterile tubes with ficol. • C. Add diluted blood to tubes. • D. Centrifuge. • E. Discard the top layer and collect the cells from middle layer. • F. Divide all cells into four tubes and add media. • G. Centrifuge. • H. Aspirate off media and resuspend. • I. Collect all cells • J. Centrifuge. at 1200 rpm for 10 minutes. • K. Resuspend in RPMI-1640 with 2% FBS and count cells • Stimulation of PBMC: • L. Prepare TPA in DMSO. • M. Dissolve PHA in water. • N. Plate TPA/PHA treated PBMCs in well plates. • O. Incubate. • Treatment: • P. Prepare all compound dilutions in plain RPMI-1640 media. • Q. Add diluted compound. • R. Incubate. • Sample Collection and assay: • S. Remove all the cells by centrifugation and assay the supernatant for IL-10 by immunoassay. • 1) T. Perform IL-10 assay using anti-human IL-10 antibody coated beads, as described by the manufacturer (Linco Research Inc., St. Charles, Mo.).

KERtr cells = assay: Keratinocyte proliferation assay (BrdU incorporation); type: cell-based; conditions: KERtr human skin keratinocytes, 72 hr treatment, read-out: Kera. Prolif. IC50
[2] = Mouse hypercalcemia assay (six day, serum ionized calcium); type: in vivo
Method: 5. The Mouse Hypercalcemia test is described in the “Assay” section of the Description, infra.
4. The Mouse Hypercalcemia Assay
The Mouse Hypercalcemia Assay is a six day hypercalcemia test for toxicity and selectivity. Acceptable test results are levels greater than 300 μg/kg/day. Preferred assay results are levels greater than 1000 μg/kg/day.
(4) Materials and Method for The Mouse Hypercalcemia Assay:
Weanling, virus-antibody-free, five to six weeks old female DBF mice (Harlan, Indianapolis, Ind.) are used for all the studies. Animals are allowed to acclimate to local vivarium conditions for 2 days. […] The animals then are divided into groups with 4-5 mice per group. Different doses of test compounds prepared in 10% Ethanol and 90% sesame oil are administered to mice orally via gavage for 6 days. 1α-25(OH)2D3 0.5 μg/kg/d was also given to one group of mice as the positive control. Serum ionized calcium is evaluated at 6 hours after the last dosing under isoflurane anesthesia by Ciba-Corning Ca++/PH Analyzer, (Model 634, Chiron Diagnostics Corp., East Walpole, Mass.). Raw data of group differences is assessed by analysis of variance (ANOVA) using Fisher's protected least significant difference (PLSD) where the significance level was P<0.05.

[3] = Homo sapiens, Keratinocyte, 72 h

EC50 (rat osteocalcin promoter; Rattus norvegicus) [nM]	EC50 (RXR-VDR heterodimer) [nM]	Structure (SMILES)	IC50 ([1]; Homo sapiens, PBMC) [nM]	also measured
326	323	CCC(CC)(c1ccc(OCC(O)C(C)(C)C)c(C)c1)c1cc(C)c(C(=O)OC)s1 (single isomer, unassigned) [Ex. 6B]		EC50 (VDR): 1060 nM
	212	CCC(CC)(c1ccc(OCS(C)(=O)=O)c(C)c1)c1cc(C)c(CCC(O)C(C)(C)C)s1 (single isomer, unassigned) [Ex. 15B]		EC50 (VDR): 245 nM
		CCC(CC)(c1ccc(OS(C)(=O)=O)c(C)c1)c1cc(C)c(CCC(O)C(C)(C)C)s1 (single isomer, unassigned) [Ex. 19A]	60	IC50 (KERtr cells; [3]): 18 nM
		CCC(CC)(c1ccc(CCC(=O)O)c(C)c1)c1cc(C)c(CCC(O)C(C)(C)C)s1 (single isomer, unassigned) [Ex. 30B]	120	
110	474	CCC(CC)(c1ccc(OCC(O)C(C)(C)C)c(C)c1)c1ccc(S(=O)(=O)NCC(=O)OC)s1 (single isomer, unassigned) [Ex. 152]		
		C=C1/C(=C\C=C2/CCC[C@]3(C)[C@@H]([C@H](C)CCCC(C)(C)O)CC[C@@H]23)C[C@@H](O)C[C@@H]1O [AA, 1α,25-dihydroxyvitamin D3, reference compound]		IC50 [1]: 1.2 nM; EC50 (rat osteocalcin promoter): 5 nM; Mouse Hypercal [2]: 0.06 µg/kg/day
146		CCC(CC)(c1ccc(OCC(O)C(C)(C)C)c(C)c1)c1ccc(C(=O)OC)s1 (stereo not drawn) [Ex. 5]		EC50 (VDR): 1030 nM
46.6		CCC(CC)(c1ccc(OCC(=O)C(C)(C)C)c(C)c1)c1cc(C)c(CS(C)(=O)=O)s1 [Ex. 9]	98	IC50 (KERtr cells; [3]): 129 nM
		CCC(CC)(c1ccc(OCC(O)C(C)(C)C)c(C)c1)c1cc(C)c(C(=O)N[C@@H](C)C(=O)O)s1 (stereo partly drawn) [Ex. 65, L-2-[(5-{1-Ethyl-1-[4-(2-hydroxy-3,3-dimethyl-butoxy)-3-methyl-phenyl]-propyl}-3-methyl-thiophene-2-carbonyl)-amino]-propionic acid]	41	EC50 (rat osteocalcin promoter): 3.4 nM; IC50 (KERtr cells): 56 nM; Mouse Hypercal [2]: 300 µg/kg/day
	431	CCC(CC)(c1ccc(OCC(O)C(C)(C)C)c(C)c1)c1cc(C)c(S(=O)(=O)NCC(=O)OC)s1 (stereo not drawn) [Ex. 136]		EC50 (VDR): 901 nM
		CCC(CC)(c1ccc(OCC(O)C(C)(C)C)c(C)c1)c1cc(C)c(S(=O)(=O)NCC(=O)O)s1 (stereo not drawn) [Ex. 138]	110	IC50 (KERtr cells; [3]): 102 nM
		CCC(CC)(c1ccc(OCC(O)C(C)(C)C)c(C)c1)c1cc(C)c(-c2n[nH]c(=O)o2)s1 (stereo not drawn) [Ex. 170]	100	

Structure (SMILES)	EC50 (rat osteocalcin promoter; Rattus norvegicus) [nM]	EC50 (RXR-VDR heterodimer) [nM]	IC50 ([1]; Homo sapiens, PBMC) [nM]	also measured
CCc1cc(C(CC)(CC)c2ccc(C(=O)O)s2)ccc1OCC(O)C(C)(C)C (single isomer, unassigned) [Ex. 101, 3′-[4-(2-hydroxy-3,3-dimethylbutoxy)-3-ethylphenyl]-3′-[5-carboxy-thiophen-2-yl]pentane]		379		EC50 (rat osteocalcin promoter): 29.4 nM; Mouse Hypercal [2]: 12000 µg/kg/day
CCc1cc(C(CC)(CC)c2ccc(C(=O)O)s2)ccc1OCC(C)(O)C(C)(C)C (single isomer, unassigned) [Ex. 108, 3′-[4-(2-hydroxy-2,3,3-trimethylbutoxy)-3-ethylphenyl]-3′-[5-carboxy-thiophen-2-yl]pentane]	5.25		597	IC50 (KERtr cells; [3]): 66 nM; Mouse Hypercal [2]: 300 µg/kg/day
CCc1cc(C(CC)(CC)c2ccc(C(=O)N[C@@H](C)C(=O)O)s2)ccc1OCC(C)(O)C(C)(C)C (single isomer, unassigned) [Ex. 110, d-3′-[4-(2-hydroxy-2,3,3-trimethylbutoxy)-3-ethylphenyl]-3′-[5-(carboxy-1-ethylamino)carbonyl-thiophen-2-yl]pentane]	0.225		288	IC50 (KERtr cells; [3]): 9.5 nM; Mouse Hypercal [2]: <300 µg/kg/day
CCCc1cc(C(CC)(CC)c2ccc(C(=O)O)s2)ccc1OCC(C)(O)C(C)(C)C (single isomer, unassigned) [Ex. 113, 3′-[4-(2-hydroxy-2,3,3-trimethylbutoxy)-3-n-propylphenyl]-3′-[5-carboxy-thiophen-2-yl]pentane]		542		EC50 (rat osteocalcin promoter): 118 nM
CCC(CC)(c1ccc(OCC(C)(O)C(C)(C)C)c(OC)c1)c1ccc(C(=O)N[C@H](C)C(=O)O)s1 (single isomer, unassigned) [Ex. 117, d-3′-[4-(2-hydroxy-2,3,3-trimethylbutoxy)-3-methoxyphenyl]-3′-[5-(carboxy-1-ethylamino)carbonyl-thiophen-2-yl]pentane]		2210		EC50 (rat osteocalcin promoter): 101 nM

Source: patent publication US7601850B2, “Phenyl-thiophene type vitamin D receptor modulators” (Eli Lilly and Company, priority 2002, dated 2009)
